The first test deals with NCI-H23. Briefly: relative viability (nuclei count vs DMSO), 5 days (fraction); higher = more cells survive. To be noted: first compound 4 µM. The method, boiled down: (§1)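 Each reported value is a median over duplicate plates. It expresses relative viability: treated-well nuclei count divided by vehicle-well nuclei count. Lung cancer cell lines in 1536-well plates were dosed by pin tool a day after seeding, alone with one drug or with a fixed anchor-drug dose plus five library-drug doses (not always all listed) in √10 steps, and nuclei were counted after 5 days.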
On to `Clc1ccc(Nc2nnc(Cc3ccncc3)c3ccccc23)cc1` [Vatalanib] + Nc1nc2[nH]cc(CCc3ccc(C(=O)N[C@@H](CCC(=O)O)C(=O)O)cc3)c2c(=O)[nH]1 [Pemetrexed] (partner 0.2 µM), for which the relative viability was determined as 0.544.

The test system of the next test is ChaGo-K-1. The test is described as above. To be noted: first compound 0.04 µM. The method, boiled down:
as §1
The molecule `COc1cc(N2CCC(C(N)=O)CC2)ccc1Nc1nc(N)c(Cl)c(Nc2ccccc2S(=O)(=O)C(C)C)n1` [HG-5-88-01] + N=C(N)NC(=N)NCCc1ccccc1 [Phenformin] (partner 250 µM) had a relative viability of 0.586.
Still for that read-out and setting: the same measure for `Clc1ccc(Nc2nnc(Cc3ccncc3)c3ccccc23)cc1` [Vatalanib] + COc1cccc2cc(-c3nc([C@H]4CC[C@H](C(=O)O)CC4)n4ncnc(N)c34)[nH]c12 [OSI-027] (partner 0.5 µM): 0.589; for `Clc1ccc(Nc2nnc(Cc3ccncc3)c3ccccc23)cc1` [Vatalanib] + N=C(N)NC(=N)NCCc1ccccc1 [Phenformin] (partner 250 µM): 0.453; for `Clc1ccc(Nc2nnc(Cc3ccncc3)c3ccccc23)cc1` [Vatalanib] + Nc1nc2[nH]cc(CCc3ccc(C(=O)N[C@@H](CCC(=O)O)C(=O)O)cc3)c2c(=O)[nH]1 [Pemetrexed] (partner 0.2 µM): 0.263.

Staying with this test, now noted: first compound 0.1265 µM.
Regarding `COc1cc(N2CCC(C(N)=O)CC2)ccc1Nc1nc(N)c(Cl)c(Nc2ccccc2S(=O)(=O)C(C)C)n1` [HG-5-88-01] + N=C(N)NC(=N)NCCc1ccccc1 [Phenformin] (partner 250 µM), the relative viability came to 0.51.
The same measure, in the same setting: the same measure for `Clc1ccc(Nc2nnc(Cc3ccncc3)c3ccccc23)cc1` [Vatalanib] + COc1cccc2cc(-c3nc([C@H]4CC[C@H](C(=O)O)CC4)n4ncnc(N)c34)[nH]c12 [OSI-027] (partner 0.5 µM): 0.548.
Still for that read-out and setting: next, `Clc1ccc(Nc2nnc(Cc3ccncc3)c3ccccc23)cc1` [Vatalanib] + N=C(N)NC(=N)NCCc1ccccc1 [Phenformin] (partner 250 µM): 0.407; `Clc1ccc(Nc2nnc(Cc3ccncc3)c3ccccc23)cc1` [Vatalanib] + Nc1nc2[nH]cc(CCc3ccc(C(=O)N[C@@H](CCC(=O)O)C(=O)O)cc3)c2c(=O)[nH]1 [Pemetrexed] (partner 0.2 µM): 0.294.

Staying with this test, now noted: first compound 0.4 µM.
`COc1cc(N2CCC(C(N)=O)CC2)ccc1Nc1nc(N)c(Cl)c(Nc2ccccc2S(=O)(=O)C(C)C)n1` [HG-5-88-01] + N=C(N)NC(=N)NCCc1ccccc1 [Phenformin] (partner 250 µM) yielded a relative viability of 0.449.
On the same count and under the same terms, the same measure for `Clc1ccc(Nc2nnc(Cc3ccncc3)c3ccccc23)cc1` [Vatalanib] + COc1cccc2cc(-c3nc([C@H]4CC[C@H](C(=O)O)CC4)n4ncnc(N)c34)[nH]c12 [OSI-027] (partner 0.5 µM): 0.622; for `Clc1ccc(Nc2nnc(Cc3ccncc3)c3ccccc23)cc1` [Vatalanib] + N=C(N)NC(=N)NCCc1ccccc1 [Phenformin] (partner 250 µM): 0.522.
With `Clc1ccc(Nc2nnc(Cc3ccncc3)c3ccccc23)cc1` [Vatalanib] + Nc1nc2[nH]cc(CCc3ccc(C(=O)N[C@@H](CCC(=O)O)C(=O)O)cc3)c2c(=O)[nH]1 [Pemetrexed] (partner 0.2 µM), the relative viability worked out at 0.265.

The same test, now with this note: first compound 1.265 µM.
Consider `COc1cc(N2CCC(C(N)=O)CC2)ccc1Nc1nc(N)c(Cl)c(Nc2ccccc2S(=O)(=O)C(C)C)n1` [HG-5-88-01] + N=C(N)NC(=N)NCCc1ccccc1 [Phenformin] (partner 250 µM), for which the relative viability came out at 0.525.
Still for that read-out and setting: the same measure for `Clc1ccc(Nc2nnc(Cc3ccncc3)c3ccccc23)cc1` [Vatalanib] + COc1cccc2cc(-c3nc([C@H]4CC[C@H](C(=O)O)CC4)n4ncnc(N)c34)[nH]c12 [OSI-027] (partner 0.5 µM): 0.5; for `Clc1ccc(Nc2nnc(Cc3ccncc3)c3ccccc23)cc1` [Vatalanib] + N=C(N)NC(=N)NCCc1ccccc1 [Phenformin] (partner 250 µM): 0.432.
On to `Clc1ccc(Nc2nnc(Cc3ccncc3)c3ccccc23)cc1` [Vatalanib] + Nc1nc2[nH]cc(CCc3ccc(C(=O)N[C@@H](CCC(=O)O)C(=O)O)cc3)c2c(=O)[nH]1 [Pemetrexed] (partner 0.2 µM), for which the relative viability is 0.258.

The same test, now with this note: first compound 4 µM.
Consider `COc1cc(N2CCC(C(N)=O)CC2)ccc1Nc1nc(N)c(Cl)c(Nc2ccccc2S(=O)(=O)C(C)C)n1` [HG-5-88-01] + N=C(N)NC(=N)NCCc1ccccc1 [Phenformin] (partner 250 µM), for which the relative viability was determined as 0.383.
`Clc1ccc(Nc2nnc(Cc3ccncc3)c3ccccc23)cc1` [Vatalanib] + COc1cccc2cc(-c3nc([C@H]4CC[C@H](C(=O)O)CC4)n4ncnc(N)c34)[nH]c12 [OSI-027] (partner 0.5 µM) returned a relative viability of 0.594.
The molecule `Clc1ccc(Nc2nnc(Cc3ccncc3)c3ccccc23)cc1` [Vatalanib] + N=C(N)NC(=N)NCCc1ccccc1 [Phenformin] (partner 250 µM) yielded a relative viability of 0.431.
On the same count and under the same terms, the same measure for `Clc1ccc(Nc2nnc(Cc3ccncc3)c3ccccc23)cc1` [Vatalanib] + Nc1nc2[nH]cc(CCc3ccc(C(=O)N[C@@H](CCC(=O)O)C(=O)O)cc3)c2c(=O)[nH]1 [Pemetrexed] (partner 0.2 µM): 0.26.

A further test relates to NCI-H1734. Described as above. Conditions: first compound 0.04 µM. In short, it runs like this: as §1
`COc1cc(N2CCC(C(N)=O)CC2)ccc1Nc1nc(N)c(Cl)c(Nc2ccccc2S(=O)(=O)C(C)C)n1` [HG-5-88-01] + N=C(N)NC(=N)NCCc1ccccc1 [Phenformin] (partner 250 µM) returned a relative viability of 0.345.
On the same count and under the same terms, next, `Clc1ccc(Nc2nnc(Cc3ccncc3)c3ccccc23)cc1` [Vatalanib] + COc1cccc2cc(-c3nc([C@H]4CC[C@H](C(=O)O)CC4)n4ncnc(N)c34)[nH]c12 [OSI-027] (partner 0.5 µM): 0.675; `Clc1ccc(Nc2nnc(Cc3ccncc3)c3ccccc23)cc1` [Vatalanib] + N=C(N)NC(=N)NCCc1ccccc1 [Phenformin] (partner 250 µM): 0.459.
Same read-out and setting: next, `Clc1ccc(Nc2nnc(Cc3ccncc3)c3ccccc23)cc1` [Vatalanib] + Nc1nc2[nH]cc(CCc3ccc(C(=O)N[C@@H](CCC(=O)O)C(=O)O)cc3)c2c(=O)[nH]1 [Pemetrexed] (partner 0.2 µM): 0.401.

Staying with this test, now noted: first compound 0.1265 µM.
`COc1cc(N2CCC(C(N)=O)CC2)ccc1Nc1nc(N)c(Cl)c(Nc2ccccc2S(=O)(=O)C(C)C)n1` [HG-5-88-01] + N=C(N)NC(=N)NCCc1ccccc1 [Phenformin] (partner 250 µM) had a relative viability of 0.364.
On the same count and under the same terms, next, `Clc1ccc(Nc2nnc(Cc3ccncc3)c3ccccc23)cc1` [Vatalanib] + COc1cccc2cc(-c3nc([C@H]4CC[C@H](C(=O)O)CC4)n4ncnc(N)c34)[nH]c12 [OSI-027] (partner 0.5 µM): 0.463; `Clc1ccc(Nc2nnc(Cc3ccncc3)c3ccccc23)cc1` [Vatalanib] + N=C(N)NC(=N)NCCc1ccccc1 [Phenformin] (partner 250 µM): 0.328.
In turn, `Clc1ccc(Nc2nnc(Cc3ccncc3)c3ccccc23)cc1` [Vatalanib] + Nc1nc2[nH]cc(CCc3ccc(C(=O)N[C@@H](CCC(=O)O)C(=O)O)cc3)c2c(=O)[nH]1 [Pemetrexed] (partner 0.2 µM) had a relative viability of 0.42.

The values above are taken from the supplement of paper PMC10307832.
